# Where two headings read alike, the source gives them in different places.
# Columns and labels:
# [1] = format: physicochemical; conditions: for loss of AZA A: AZA alone without incorporation of a PYR (Table 2); for % Decomposition of AZA A and PYR: JeffSol AG-1555, Triton X-100
# Description: This invention relates to a storage stable, efficacious pesticide formulation dilutable by the user that contains azadirachtin made up of azadirachtin A and azadirachtin B, a pyrethrin or pyrethroid, a solvent, and an emulsifier. The pyrethrin or pyrethroid complexes with and minimizes decomposition of the azadirachtin A. An amount of the pyrethrin or pyrethroid is incorporated to form a complex with the azadirachtin A on opposite sides of the molecular structure thereof. […] Preferably, an aprotic heterocyclic or mono, di-, or polycyclic aromatic solvent is provided having C2-C25 carbon atoms and that is compatible with the azadirachtin A and pyrethrin or pyrethroid. In addition, a non-ionic emulsifier is preferably included in the formulation.
# When a PYR was added to AZA A, the decomposition pathway of AZA A was stabilized, as shown by Table 2.
# FIG. 1 is a plot of the percent AZA A decomposition on the Y-axis, as compared with the mole ratio of bifenthrin/AZA A on the X-axis, under an accelerated aging test of 30 days at 40° C. The loss of AZA A decreased as the mole ratio of PYR to AZA A approached 2:1, where the PYR was present in an amount to form a complex with the AZA A on opposite sides of the molecular structure thereof and sufficient to prevent further decomposition of the AZA A.
# FIG. 3 compares the percent of AZA A decomposition on the Y-axis with the mole ratio of zeta cypermethrin to AZA A on the X-axis, also under an accelerated aging test of 30 days at 40° C.
# [2] = Azadirachtin stability tests in seed oil carrier (soybean oil / Tween 85 containing 5% water); format: physicochemical; conditions: Soybean Oil (50% Seed Oil/50% Tween 85 containing 5% water), 40° C., 32 Days
# Description: AZA plus PYRs have been studied in conventional oil systems, such as soybean oil, canola oil, methylated soybean oil, epoxidized soybean oil, rape seed oil, and olive oil, all of which contained an emulsifier having as much as 5% of water. None of these oils in combination with the PYR stabilized the AZA A in the formulation, largely because of the presence of moisture in the emulsifier. When AZA is combined with PYR and the types of solvents and emulsifiers disclosed herein, the AZA A of the formulation is stabilized. Table 9 records test results of AZA+soybean oil as compared with AZA+PYR+soybean oil.
# [3] = system: potato aphids; assay: Greenhouse tests on live potato aphids on tomatoes; format: in vivo; conditions: Azadirachtin 0.0008 lbs/gal, bifenthrin 0.005 lbs/gal, combination as labelled
# [4] = Azadirachtin A/B 0.50% + Bifenthrin 2.01%, 1 Month/40° C.
# [5] = Azadirachtin A/B 0.50% + Bifenthrin 2.01%, 1 Month/Ambient
# [6] = Azadirachtin A/B 1.50% + 1.50% second active, 1 Month/40° C.
# [7] = Azadirachtin A/B 1.50% + 1.50% second active, 1 Month/Ambient
# [8] = Azadirachtin A/B 1.75% + Bifenthrin 1.00%, 1 Month/40° C.
# [9] = Azadirachtin A/B 2.00% + Bifenthrin 0.50%, 1 Month/40° C.
Compound,loss of AZA A [1],"% Decomposition of AZA A and PYR [1, 4]","% Decomposition of AZA A and PYR [1, 5]","% Decomposition of AZA A and PYR [1, 6]","% Decomposition of AZA A and PYR [1, 7]","% Decomposition of AZA A and PYR [1, 8]","% Decomposition of AZA A and PYR [1, 9]","% Decomposition of AZA A and PYR ([1]; Azadirachtin A/B only 3.01% AI, 1 Month/40° C.)",AZA A Stability in Formulation ([2]; AZA A/B 0.50% + Bifenthrin 2.00%),AZA A Stability in Formulation ([2]; AZA A/B 0.50% + Permethrin 2.00%),AZA A Stability in Formulation ([2]; AZA A/B 0.50% + Z-Cypermethrin 2.00%),AZA A Stability in Formulation ([2]; AZA A/B 3.00% alone),Live potato aphids on tomatoes (aphid mean numbers) ([3]; 0 DAT1),Live potato aphids on tomatoes (aphid mean numbers) ([3]; 0 DAT2),Live potato aphids on tomatoes (aphid mean numbers) ([3]; 3 DAT1),Live potato aphids on tomatoes (aphid mean numbers) ([3]; 3 DAT2),Live potato aphids on tomatoes (aphid mean numbers) ([3]; 7 DAT1),Live potato aphids on tomatoes (aphid mean numbers) ([3]; 7 DAT2),"% Decomposition of AZA A and PYR ([1]; Bifenthrin only 3.01% AI, 1 Month/40° C.)","loss of AZA A (percent of AZA A decomposition) ([1]; 1:1 mole ratio zeta cypermethrin to AZA A, accelerated aging test of 30 days at 40° C., FIG. 3)"
azadirachtin [Azadirachtin A/B],12.64%,−4.30%,−1.03%,−4.20%,−0.14%,−7.37%,−7.61%,−12.64%,−54.27%,−52.62%,−48.25%,−27.02%,338 a,11 c,120 b,3 c,18 c,1 c,,
"Cc1c(COC(=O)[C@@H]2[C@H](/C=C(\Cl)C(F)(F)F)C2(C)C)cccc1-c1ccccc1 (racemic) [Bifenthrin, bifenthrin]",,−2.67%,−2.42%,−2.96%,−2.82%,−2.21%,−0.82%,,,,,,357 a,162 b,131 b,89 b,179 b,64 b,−2.54%,
"C/C=C(\C)C(=O)O[C@H]1C[C@@H](OC(C)=O)[C@@]2(C(=O)OC)CO[C@@H]3C2[C@]12CO[C@@](O)(C(=O)OC)[C@H]2[C@](C)(C12OC1(C)C1C[C@H]2O[C@@H]2OC=CC12O)[C@@H]3O (stereo partly drawn) [AZA A, azadirachtin A]",more than 12%,,,,,,,,,,,,,,,,,,,1%

# — US20080090780A1, “Storage stable azadirachtin pesticide formulation” (PBI/GORDON CORPORATION, priority 2006, published 2008)
